Where a name gives a salt, the structure may show the parent alone. Read-outs that look alike come from different tables or passages of the source.
Target: T1, IRAK4 (Homo sapiens, UniProt Q9NWZ3)
T1 sequence (Q9NWZ3 1-460): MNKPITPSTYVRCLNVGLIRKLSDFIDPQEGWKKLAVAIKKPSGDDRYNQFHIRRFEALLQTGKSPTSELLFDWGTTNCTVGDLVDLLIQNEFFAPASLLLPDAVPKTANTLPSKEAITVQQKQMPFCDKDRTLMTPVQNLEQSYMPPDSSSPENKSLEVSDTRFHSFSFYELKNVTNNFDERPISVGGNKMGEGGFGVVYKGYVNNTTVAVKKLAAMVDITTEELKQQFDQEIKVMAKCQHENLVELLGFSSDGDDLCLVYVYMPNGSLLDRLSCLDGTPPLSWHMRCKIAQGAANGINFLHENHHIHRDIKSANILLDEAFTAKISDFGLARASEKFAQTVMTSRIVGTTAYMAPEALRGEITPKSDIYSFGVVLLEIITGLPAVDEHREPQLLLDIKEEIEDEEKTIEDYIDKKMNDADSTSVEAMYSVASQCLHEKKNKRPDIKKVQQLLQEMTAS
Experiment: biochemical

[1] = IRAK4 Biochemical Assay (1 mM ATP, 2 h) IC50 (μM), 1 mM ATP, 2 h, 100 pM IRAK4

SMILES	IC50	IC50 [1]
O=C(Nc1cccc(C(F)F)n1)c1cn2cc(C3CC3)nc2cc1OC1CCOC1 (stereo not shown) [Example 468, 2-Cyclopropyl-N-(6-(difluoromethyl)pyridin-2-yl)-7-((tetrahydrofuran-3-yl)oxy)imidazo[1,2-a]pyridine-6-carboxamide]	0.007 µM	–
CC12CC(c3cn4cc(C(=O)Nc5ccn(C(F)F)n5)c(OC5CCC5)cc4n3)(CO1)C2 [Example 523, 7-Cyclobutoxy-N-(1-(difluoromethyl)-1H-pyrazol-3-yl)-2-(1-methyl-2-oxabicyclo[2.1.1]hexan-4-yl)imidazo[1,2-a]pyridine-6-carboxamide]	0.0023 µM	–
Cn1ccc(NC(=O)c2cn3cc(C45CCC(C)(C4)OC5)nc3cc2OC2CCC2)n1 (stereo not shown) [Example 561, 7-Cyclobutoxy-N-(1-methyl-1H-pyrazol-3-yl)-2-(1-methyl-2-oxabicyclo[2.2.1]heptan-4-yl)imidazo[1,2-a]pyridine-6-carboxamide]	0.0014 µM	–
CC(C)Oc1nc2nc(C34COC(C)(C3)C4)cn2cc1C(=O)Nc1cnn2ccc(C(F)F)nc12 [Example 309, N-(5-(difluoromethyl)pyrazolo[1,5-a]pyrimidin-3-yl)-7-isopropoxy-2-(1-methyl-2 oxabicyclo[2.1.1]hexan-4-yl)imidazo[1,2-a]pyrimidine-6-carboxamide trifluoroacetate]	–	0.0299 µM
CCn1ccc(NC(=O)c2cn3cc(C45COC(C)(C4)C5)nc3cc2OC2CCC2)n1 [Example 528, 7-Cyclobutoxy-N-(1-ethyl-1H-pyrazol-3-yl)-2-(1-methyl-2-oxabicyclo[2.1.1]hexan-4-yl)imidazo[1,2-a]pyridine-6-carboxamide]	0.0052 µM	–
Cn1cccc(NC(=O)c2cn3cc(C45CCC(C)(CC4)OC5)nc3cc2OC2CCC2)c1=O [Example 421, 7-Cyclobutoxy-N-(1-methyl-2-oxo-1,2-dihydropyridin-3-yl)-2-(1-methyl-2-oxabicyclo[2.2.2]octan-4-yl)imidazo[1,2-a]pyridine-6-carboxamide]	0.0002 µM	–
CCOc1nc(C(=O)Nc2ccc(F)cc2OC)cn2cc(C34COC(C)(C3)C4)nc12 [Example 491, 8-Ethoxy-N-(4-fluoro-2-methoxyphenyl)-2-(1-methyl-2-oxabicyclo[2.1.1]hexan-4-yl)imidazo[1,2-a]pyrazine-6-carboxamide]	0.0023 µM	–
CC(C)Oc1nc2nc(C34COC(C)(C3)C4)cn2cc1C(=O)Nc1cnn2cc(F)cnc12 [Example 398, N-(6-fluoropyrazolo[1,5-a]pyrimidin-3-yl)-7-isopropoxy-2-(1-methyl-2-oxabicyclo[2.1.1]hexan-4-yl)imidazo[1,2-a]pyrimidine-6-carboxamide]	–	0.0002 µM
Cn1ccc(NC(=O)c2cn3cc(C45COC(C)(C4)C5)nc3cc2OC2CC(C(F)F)C2)n1 (stereo not shown) [Example 451, 7-(3-(Difluoromethyl)cyclobutoxy)-N-(1-methyl-1H-pyrazol-3-yl)-2-(1-methyl-2-oxabicyclo[2.1.1]hexan-4-yl)imidazo[1,2-a]pyridine-6-carboxamide]	–	0.0065 µM
COc1ncccc1NC(=O)c1cn2cc([C@]34CC[C@](C)(C3)OC4)nc2nc1OC(C)C (single isomer, unassigned) [Example 579]	0.0004 µM	–
C[C@@]12CC[C@@](c3cn4cc(C(=O)Nc5cccc(C(F)F)n5)cc(OC(F)F)c4n3)(CO1)C2 (single isomer, unassigned) [Example 584]	0.0154 µM	–
COc1nc(C(=O)Nc2cccc(C(F)F)n2)cn2cc(C34CCOC(C)(C3)C4)nc12 [Example 234]	0.0053 µM	–
COc1cc2nc(C3CCOCC3)cn2cc1C(=O)Nc1cccnc1O [Example 189]	0.0165 µM	–
COc1cccc(NC(=O)c2cn3cc(C4CCOCC4)nc3cc2OCCC2CCOC2)n1 (stereo not shown) [Example 435, N-(6-methoxypyridin-2-yl)-2-(tetrahydro-2H-pyran-4-yl)-7-(2-(tetrahydrofuran-3-yl)ethoxy)imidazo[1,2-a]pyridine-6-carboxamide]	0.0051 µM	–
CCOc1cc2nc(C3CCOCC3)cn2cc1C(=O)Nc1cccc(C(F)CF)n1 (stereo not shown) [Example 392, N-(6-(1,2-difluoroethyl)pyridin-2-yl)-7-ethoxy-2-(tetrahydro-2H-pyran-4-yl)imidazo[1,2-a]pyridine-6-carboxamide hydrochloride]	–	0.0018 µM
CCOc1nc(C(=O)Nc2cccnc2OC)cn2cc([C@]34CC[C@](C)(C3)OC4)nc12 (single isomer, unassigned) [Example 604]	0.0003 µM	–
COc1ncccc1NC(=O)c1cn2cc(C34COC(C)(C3)C4)nc2c(OC(C)C)n1 [Example 337, 8-Isopropoxy-N-(2-methoxypyridin-3-yl)-2-(1-methyl-2-oxabicyclo[2.1.1]hexan-4-yl)imidazo[1,2-a]pyrazine-6-carboxamide]	0.0004 µM	–

Results, then the compound that gave them:

IC50	IC50 [1]	SMILES
0.0017 µM	–	CC(C)Oc1cc2nc([C@@]34CC[C@@H](C3)OC4)cn2cc1C(=O)Nc1ccn(C)n1 (single isomer, unassigned) [Example 580]
0.0045 µM	–	CC(C)Oc1cc2nc(C3CC3)cn2cc1C(=O)Nc1cccc(C#N)n1 [Example 638, N-(6-cyanopyridin-2-yl)-2-cyclopropyl-7-isopropoxyimidazo[1,2-a]pyridine-6-carboxamide]
0.0006 µM	–	Cc1cnc2c(NC(=O)c3cn4cc(C56COC(C5)C6)nc4nc3OC(C)C)cnn2c1 [Example 432]
0.0004 µM	–	CC(C)Oc1cc2nc(C34CCC(C)(CC3)OC4)cn2cc1C(=O)Nc1cnn2cccnc12 [Example 572, 7-Isopropoxy-2-(1-methyl-2-oxabicyclo[2.2.2]octan-4-yl)-N-(pyrazolo[1,5-a]pyrimidin-3-yl)imidazo[1,2-a]pyridine-6-carboxamide]
0.111 µM	–	COc1cc2nc(C3CCOCC3)cn2cc1C(=O)Nc1ccn(CCF)n1 [Example 190]
–	0.0128 µM	CC(C)Oc1nc2nc(C34COC(C)(C3)C4)cn2cc1C(=O)Nc1cnn(C)n1 [Example 365, 7-Isopropoxy-N-(2-methyl-2H-1,2,3-triazol-4-yl)-2-(1-methyl-2-oxabicyclo[2.1.1]hexan-4-yl)imidazo[1,2-a]pyrimidine-6-carboxamide trifluoroacetate]
0.0576 µM	–	CC(C)Oc1nc2nc(C34COC(C)(C3)C4)cn2cc1C(=O)Nc1ccn2nccc2n1 [Example 372, 7-Isopropoxy-2-(1-methyl-2-oxabicyclo[2.1.1]hexan-4-yl)-N-(pyrazolo[1,5-a]pyrimidin-5-yl)imidazo[1,2-a]pyrimidine-6-carboxamide]
0.0393 µM	–	CC(C)Oc1cc2nc(C34COC(C)(C3)C4)c(Cl)n2cc1C(=O)Nc1cccc(C(F)F)n1 [Example 229, 3-Chloro-N-(6-(difluoromethyl)pyridin-2-yl)-7-isopropoxy-2-(1-methyl-2-oxabicyclo[2.1.1]hexan-4-yl)imidazo[1,2-a]pyridine-6-carboxamide]
0.0084 µM	–	O=C(Nc1cccn(C(F)F)c1=O)c1cn2cc(C3CC3)nc2cc1OC1CCOC1 (stereo not shown) [Example 459, 2-Cyclopropyl-N-(1-(difluoromethyl)-2-oxo-1,2-dihydropyridin-3-yl)-7-((tetrahydrofuran-3-yl)oxy)imidazo[1,2-a]pyridine-6-carboxamide]
0.0017 µM	–	CC12CC(c3cn4cc(C(=O)Nc5cccn(C(F)F)c5=O)c(OC5CCOC5)cc4n3)(CO1)C2 (stereo not shown) [Example 443, N-(1-(difluoromethyl)-2-oxo-1,2-dihydropyridin-3-yl)-2-(1-methyl-2-oxabicyclo[2.1.1]hexan-4-yl)-7-((tetrahydrofuran-3-yl)oxy)imidazo[1,2-a]pyridine-6-carboxamide]
–	0.009 µM	CCOc1cc2nc(C3(OC)CC3)cn2cc1C(=O)Nc1cccc(C(F)F)n1 [Example 390, N-(6-(difluoromethyl)pyridin-2-yl)-7-ethoxy-2-(1-methoxy-cyclopropyl)imidazo[1,2-a]pyridine-6-carboxamide hydrochloride]
0.0007 µM	–	CC(Oc1cc2nc(C34COC(C)(C3)C4)cn2cc1C(=O)Nc1cccc(C(F)F)n1)C(F)(F)F (stereo not shown) [Example 323, N-(6-(difluoromethyl)pyridin-2-yl)-2-(1-methyl-2-oxabicyclo[2.1.1]hexan-4-yl)-7-((1,1,1-trifluoropropan-2-yl)oxy)imidazo[1,2-a]pyridine-6-carboxamide]
0.0001 µM	–	CC(C)Oc1cc2nc([C@]34CC[C@](C)(C3)OC4)cn2cc1C(=O)Nc1cccc(C(F)F)n1 (single isomer, unassigned) [Example 608]
–	0.0009 µM	CC(C)Oc1nc2nc(C34COC(C)(C3)C4)cn2cc1C(=O)Nc1cccc(C2CCOC2)n1 (stereo not shown) [Example 359, 7-Isopropoxy-2-(1-methyl-2-oxabicyclo[2.1.1]hexan-4-yl)-N-(6-(tetrahydro-furan-3-yl)pyridin-2-yl)imidazo[1,2-a]pyrimidine-6-carboxamide trifluoroacetate]
0.0013 µM	–	CC(C)Oc1cc2nc(C34CCC(C)(C3)OC4)cn2cc1C(=O)Nc1cnn2c1OCCC2 (stereo not shown) [Example 250]
0.0016 µM	–	Cc1cccc(NC(=O)c2cn3cc(C45COC(C)(C4)C5)nc3nc2OC(C)C)n1 [Example 355, 7-Isopropoxy-2-(1-methyl-2-oxabicyclo[2.1.1]hexan-4-yl)-N-(6-methylpyridin-2-yl)imidazo[1,2-a]pyrimidine-6-carboxamide]
0.0008 µM	–	CC(C)Oc1cc2nc([C@]34CC[C@H](C3)OC4)cn2cc1C(=O)Nc1cnn2cccnc12 (single isomer, unassigned) [Example 583]

— patent publication US20230087118A1, “IMIDAZO[1,2-a][sequence] DERIVATIVES AND THEIR USE IN THE TREATMENT OF DISEASE” (priority 2019, published 2023)
